Paper PMC9671962 (Communications Biology, 2022)
Where “and” joins values, the source holds several entries; their conditions need not be identical. Equal values may be shown once. Read-outs that look alike come from different tables or passages of the source.

Assays:
COG-N-453x = experiment: Pre-clinical efficacy study, COG-N-453x PDX; assay type: in vivo; conditions: single mouse
Description: (§1) Patient demographics and genetic characteristics are listed in (Supplementary Tables 1, 2)[17]. The maximum tolerated dose (MTD) was determined to be 36 MBq/kg administered by intra-peritoneal injection twice weekly for a total of 4 dose fractions and this fractionated regimen was used in all studies (Supplementary Fig. 1)[18],[19]. […] Nine of 11 PDX models were MYCN amplified (Fig. 1b), which is a hallmark of high-risk neuroblastoma. Tumor response was measured as the maximum percent decrease in tumor volume after treatment and event-free survival (EFS) was measured by the area over the curve method with tumor events pre-defined by tumor growth exceeding 2 cm[3],[18].
(§2) The use of 2 mice per arm was based on the previously reported statistical analysis. PDX tumors were implanted into the right flank of 5 to 6-weeks old female mice weighing about 20–25 grams. […] Two additional dose levels of 12, and 24 MBq/kg/fraction were assessed in a subset of models and were administered as stated above. In two models treated at the 24 MBq/kg/fraction dose level we re-challenged tumor response at the time of tumor progression with an additional 4 dose fractions at 24 MBq/kg/fraction given twice weekly. Doses were prepared in 500 µL total volume. An equal volume of saline was used for the vehicle group. Tumors were measured using a digital caliper at the initiation of the study and two times per week during the treatment period. Tumor volumes were calculated as volume = ([…]∗0.5236)/1000. Weights were obtained twice weekly and mice were monitored daily for signs of toxicity. […] Tumor response was assessed by best response defined as greatest reduction in tumor volume following the last dose and is presented as percent change in tumor volume. Event-free survival was determined by area over the curve method that calculates the time to tumor event, which was defined as tumors reaching or exceeding a size ≥ 2 cm^3.
(§3) Animal studies were performed in female mice due to the lack of sex-related differences for [^211At]PTT tolerability from initial dose response studies performed in female and male mice. Female mice were chosen due to their underlying behavior towards other study subjects that reduced nonstudy-related causes for decreased wellness. Pre-clinical efficacy studies were performed through “single mouse testing” to more closely recapitulate a clinical trial. […] Number size for treatment groups was determined by model tumor growth reproducibility, which was previously shown to have less than 5% normal variation with at least two animals. Statistical tests for tumor response and event-free survival (EFS) were performed as a grouped analysis that included all tumor models treated at each respective dose level (n = 2 per model per dose level). Statistical differences between treatment groups for tumor response was performed by paired-model T-test that compared reduction in tumor volume for the 36 MBq/kg dose level vs. 24 MBq/kg or 12 MBq/kg. Event free survival was measured by area over the curve method to quantify time to event, which was set as tumor growth exceeding 2 cm[3],[19]. Differences in EFS were tested across all treated models for each respective dose level, and against untreated controls, by paired-model ANOVA analysis. Associations of drug target expression and response were performed by linear regression analysis of EFS and PARP1 mRNA expression. Genetic signatures were visually presented as a function of EFS and no statistical tests were applied. Blood and marrow toxicity studies were performed with n = 5 sample sizes and powered to detect >20% differences between untreated controls and treated animals. Results were tested for significance by one-way ANOVA comparison from untreated controls. Marrow colony formation assays were performed in replicates of 2 for each mouse subject, dependent on marrow isolation, and all replicates are included in final analyses. […]

NB-EBC1x = experiment: Pre-clinical efficacy study, NB-EBC1x PDX; assay type: in vivo, mouse; conditions: for EFS by AOC method / Tumor response (% growth from study initiation at ~ 200 mm3): single mouse; for Tumor Volume: NBEBC1 tumor re-challenge (24 MBq/kg/fraction x 4)
Description: as §1, §2, §3

COG-N-421x = experiment: Pre-clinical efficacy study, COG-N-421x PDX; assay type: in vivo; conditions: 36 MBq/kg/fraction x 4 fractions, single mouse
Description: as §1
The use of 2 mice per arm was based on the previously reported statistical analysis. […] Two additional dose levels of 12, and 24 MBq/kg/fraction were assessed in a subset of models and were administered as stated above. […] Tumors were measured using a digital caliper at the initiation of the study and two times per week during the treatment period. Tumor volumes were calculated as volume = ((diameter^1/2 + diameter^2/2)^3∗0.5236)/1000. Weights were obtained twice weekly and mice were monitored daily for signs of toxicity. […] Tumor response was assessed by best response defined as greatest reduction in tumor volume following the last dose and is presented as percent change in tumor volume. […]

[1] = assay type: in vivo, CB57 SCID mice
Description: Toxicity studies were done in nontumor bearing CB-17 SCID mice (Taconic Biosciences). […] Each arm had n = 10 mice (5 male, 5 female mice). […] The vehicle group received an equal volume of saline (placebo). Weights were obtained twice weekly and mice were monitored daily for signs of toxicity. […] On target hematological and marrow toxicity which was evaluated by complete blood counts and marrow colony formation assay. An additional study was performed under identical conditions to evaluate additive dose effects. […] Each treatment group was composed of equal numbers of male and female mice to rule out gender-specific effects (n = 4 per treatment group per time point). Mice were followed for signs of acute toxicity for 2 weeks and 4 weeks before euthanasia. An additional group (n = 4) treated at 36 MBq/kg was euthanized after 72 h to assess early signs of toxicity by colony formation assays. This time course was chosen to best capture the nadir of bone marrow suppression. After euthanasia, blood was collected and femurs were dissected and processed for histopathology and bone marrow evaluation.
Su p p lemen t ary Fig u res
Supplementary Fi g u re 1 : Maximum tolerated dose finding studies for [211At]PT T adm inistered as 4
dose fractions given twice weekly in male and female CB57 SCID mice (n=3 per sex per dose level).
(1 picture or pasted object on this page, not shown here)

[2] = parameters: method as in PMID 31072830; conditions: cited from earlier work
[3] = 12 MBq/kg/fraction x 4 fractions
[4] = 24 MBq/kg/fraction x 4 fractions
[5] = 36 MBq/kg/fraction x 4 fractions
[6] = NB-EBC1x, 24 MBq/kg/fraction x 4 fractions
[7] = NB-EBC1x, 36 MBq/kg/fraction x 4 fractions

O=C1NCCn2c(-c3ccc([211At])cc3)nc3cccc1c32 [[^211At]PTT, Astatine-211-parthanatine]
EFS by AOC method (COG-N-453x; [3]): 19.5598 days and 22.4877 days | Tumor response (% growth from study initiation at ~ 200 mm3) (COG-N-453x; [3]): 25% and -63.158% | EFS by AOC method (COG-N-453x; [4]): 43.7943 days and 33.4459 days | Tumor response (% growth from study initiation at ~ 200 mm3) (COG-N-453x; [4]): -100% and -90.323% | EFS by AOC method (COG-N-453x; [5]): 48.6067 days and 52.9347 days | Tumor response (% growth from study initiation at ~ 200 mm3) (COG-N-453x; [5]): -100% | EFS1 (initial treatment) (NB-EBC1x; NB-EBC1x, 24 MBq/kg/fraction x 4, re-challenged mouse n = 1): 45 | EFS by AOC method (NB-EBC1x; [6]): 58.4 days | Tumor response (% growth from study initiation at ~ 200 mm3) (NB-EBC1x; [6]): -100% | EFS by AOC method (NB-EBC1x; [7]): 90.4 days and 97.6 days and 90.485 days and 97.6925 days | Tumor response (% growth from study initiation at ~ 200 mm3) (NB-EBC1x; [7]): -100% | EFS2 (re-challenge treatment) (NB-EBC1x; NB-EBC1x, re-challenge 24 MBq/kg/fraction x 4 at tumor progression, progressing disease): 47 | Tumor Volume (NB-EBC1x; week 0): 0.17 cm3 | Tumor Volume (NB-EBC1x; week 0.6): 0.28 cm3 | Tumor Volume (NB-EBC1x; week 1.1): 0.24 cm3 | Tumor Volume (NB-EBC1x; week 1.6): 0.04 cm3 | Tumor Volume (NB-EBC1x; week 2): 0.01 cm3 | Tumor Volume (NB-EBC1x; week 2.6): 0 cm3 | Tumor Volume (NB-EBC1x; week 3.1): 0 cm3 | Tumor Volume (NB-EBC1x; week 3.6): 0 cm3 | Tumor Volume (NB-EBC1x; week 4.1): 0 cm3 | Tumor Volume (NB-EBC1x; week 4.6): 0 cm3 | Tumor Volume (NB-EBC1x; week 5): 0.05 cm3 | Tumor Volume (NB-EBC1x; week 5.6): 0.32 cm3 | Tumor Volume (NB-EBC1x; week 6): 0.41 cm3 | Tumor Volume (NB-EBC1x; week 6.6): 1.05 cm3 | Tumor Volume (NB-EBC1x; week 7): 0.73 cm3 | Tumor Volume (NB-EBC1x; week 7.6): 0.34 cm3 | Tumor Volume (NB-EBC1x; week 8): 0.16 cm3 | Tumor Volume (NB-EBC1x; week 8.6): 0.03 cm3 | Tumor Volume (NB-EBC1x; week 9): 0.07 cm3 | Tumor Volume (NB-EBC1x; week 9.6): 0.07 cm3 | Tumor Volume (NB-EBC1x; week 10): 0 cm3 | Tumor Volume (NB-EBC1x; week 10.6): 0 cm3 | Tumor Volume (NB-EBC1x; week 11): 0 cm3 | Tumor Volume (NB-EBC1x; week 11.6): 0 cm3 | Tumor Volume (NB-EBC1x; week 12): 0 cm3 | Tumor Volume (NB-EBC1x; week 12.6): 0.02 cm3 | Tumor Volume (NB-EBC1x; week 13): 0.06 cm3 | Tumor Volume (NB-EBC1x; week 13.6): 0.34 cm3 | Tumor Volume (NB-EBC1x; week 14): 0.98 cm3 | EFS by AOC method (COG-N-421x): 61.4391 days and 76.0056 days | Tumor response (% growth from study initiation at ~ 200 mm3) (COG-N-421x): -100% | maximum tolerated dose (MTD) ([1]; intra-peritoneal, twice weekly, total of 4 dose fractions): 36 MBq/kg | maximum tolerated dose (MTD) ([1]; x4 fractionated regimen, SCID PDX mice): 36 MBq/kg/fraction | outcome of single dose ([2]; 1,480 kBq administered as a single dose): lethal | outcome of fractionated dose ([2]; 1,480 kBq separated into 4 dose fractions given twice weekly): tolerated
